A value given as a limit tells only on which side of the number the result lay.

Common to all, as to assay type: functional
The test system of experiment [1] is Staphylococcus aureus. The experiment can be described thus: Antibacterial activity against methicillin-resistant Staphylococcus aureus 11 assessed as bacterial growth inhibition in presence of 50 ug/ml calcium ions by CLSI protocol based broth microdilution method.
Experiment [2] concerns Staphylococcus aureus. The experiment can be described thus: Antibacterial activity against methicillin-resistant Staphylococcus aureus 14 assessed as bacterial growth inhibition in presence of 50 ug/ml calcium ions by CLSI protocol based broth microdilution method. On the technique in general: Dilution methods test growth across graded concentrations, often in twofold steps.

In experiment [3] the test system is Staphylococcus aureus. Nature of the experiment: Antibacterial activity against methicillin-resistant Staphylococcus aureus 86 assessed as bacterial growth inhibition in presence of 50 ug/ml calcium ions by CLSI protocol based broth microdilution method.
Experiment [4] has as its system Staphylococcus aureus. The experiment can be described thus: Antibacterial activity against methicillin-resistant Staphylococcus aureus 88 assessed as bacterial growth inhibition in presence of 50 ug/ml calcium ions by CLSI protocol based broth microdilution method.
Experiment [5] relates to Staphylococcus aureus. The experiment can be described thus: Antibacterial activity against Staphylococcus aureus ATCC 29213 assessed as bacterial growth inhibition in presence of 50 ug/ml calcium ions by CLSI protocol based broth microdilution method.
Experiment [6] concerns Enterococcus faecalis. Nature of the experiment: Antibacterial activity against Streptococcus faecalis assessed as bacterial growth inhibition in presence of 50 ug/ml calcium ions by CLSI protocol based broth microdilution method.
Experiment [7] relates to Enterococcus. Nature of the experiment: Antibacterial activity against Enterococcus 6 assessed as bacterial growth inhibition in presence of 50 ug/ml calcium ions by CLSI protocol based broth microdilution method.
Experiment [8] concerns Enterococcus. Nature of the experiment: Antibacterial activity against Enterococcus 60 assessed as bacterial growth inhibition in presence of 50 ug/ml calcium ions by CLSI protocol based broth microdilution method.
The subject of experiment [9] is Enterococcus faecalis. Nature of the experiment: Antibacterial activity against Enterococcus faecalis ATCC 29212 assessed as bacterial growth inhibition in presence of 50 ug/ml calcium ions by CLSI protocol based broth microdilution method.

Broadly, the MIC is the lowest concentration that inhibits growth of the organism. For the molecule `CCCCCCCCCC(=O)N[C@@H](Cc1ccncc1)C(=O)N[C@@H](CC(N)=O)C(=O)N[C@@H](CC(=O)O)C(=O)N[C@@H]1C(=O)NCC(=O)N[C@@H](CCCN)C(=O)N[C@@H](CC(=O)O)C(=O)N[C@H](C)C(=O)N[C@@H](CC(=O)O)C(=O)NCC(=O)N[C@H](CO)C(=O)N[C@@H]([C@@H](C)CC(=O)O)C(=O)N[C@@H](CC(=O)c2ccccc2N)C(=O)O[C@@H]1C`, the MIC with Staphylococcus aureus [1], with Staphylococcus aureus [2], in the experiment on Staphylococcus aureus [3], in the experiment on Staphylococcus aureus [4], in the experiment on Staphylococcus aureus [5] and with Enterococcus faecalis [6] was at least 32 µg/mL throughout. Besides, the MIC in the experiment on Enterococcus [7], with Enterococcus [8] and with Enterococcus faecalis [9] was at least 32 µg/mL throughout.
For `CCCCCCCCCC(=O)N[C@@H](Cc1c[nH]c2ccccc12)C(=O)N[C@@H](CC(N)=O)C(=O)N[C@@H](CC(=O)O)C(=O)N[C@@H]1C(=O)NCC(=O)N[C@@H](CCCN)C(=O)N[C@@H](CC(=O)O)C(=O)N[C@H](C)C(=O)N[C@@H](CC(=O)O)C(=O)NCC(=O)N[C@H](CO)C(=O)N[C@@H](C)C(=O)N[C@@H](CC(=O)c2ccccc2N)C(=O)O[C@@H]1C`, the minimal inhibitory concentration (MIC) in the experiment with Staphylococcus aureus [1], in the experiment on Staphylococcus aureus [2], with Staphylococcus aureus [3], with Staphylococcus aureus [4], with Staphylococcus aureus [5] and with Enterococcus faecalis [6] was at least 64 µg/mL throughout. Further, the MIC in the experiment on Enterococcus [7], with Enterococcus [8] and with Enterococcus faecalis [9] was at least 64 µg/mL in each case.
On to `C#Cc1ccc(C(=O)N[C@@H](Cc2c[nH]c3ccccc23)C(=O)N[C@@H](CC(N)=O)C(=O)N[C@@H](CC(=O)O)C(=O)N[C@@H]2C(=O)NCC(=O)N[C@@H](CCCN)C(=O)N[C@@H](CC(=O)O)C(=O)N[C@H](C)C(=O)N[C@@H](CC(=O)O)C(=O)NCC(=O)N[C@H](CO)C(=O)N[C@@H]([C@@H](C)CC(=O)O)C(=O)N[C@@H](CC(=O)c3ccccc3N)C(=O)O[C@@H]2C)cc1`, for which the minimum inhibitory concentration (MIC) in the experiment on Staphylococcus aureus [1], in the experiment on Staphylococcus aureus [2], in the experiment with Staphylococcus aureus [3], with Staphylococcus aureus [4], in the experiment on Staphylococcus aureus [5] and in the experiment with Enterococcus faecalis [6] was at least 32 µg/mL in each case. Besides, the MIC in the experiment with Enterococcus [7], in the experiment on Enterococcus [8] and in the experiment with Enterococcus faecalis [9] was at least 32 µg/mL in each case.
With `CCCCCCCCCC(=O)N[C@@H](Cc1c[nH]c2ccccc12)C(=O)N[C@@H](CC(N)=O)C(=O)N[C@@H](CC(=O)O)C(=O)N[C@@H]1C(=O)NCC(=O)N[C@@H](Cc2c[nH]c3ccccc23)C(=O)N[C@@H](CC(=O)O)C(=O)N[C@H](C)C(=O)N[C@@H](CC(=O)O)C(=O)NCC(=O)N[C@H](CO)C(=O)N[C@@H]([C@@H](C)CC(=O)O)C(=O)N[C@@H](CC(=O)c2ccccc2N)C(=O)O[C@@H]1C`, the minimum inhibitory concentration (MIC) in the experiment on Staphylococcus aureus [1] turned out to be 2 µg/mL; in the experiment on Staphylococcus aureus [2] it was 1 µg/mL; in the experiment on Staphylococcus aureus [3], 4 µg/mL; in the experiment on Staphylococcus aureus [4], 2 µg/mL; in the experiment with Staphylococcus aureus [5], 4 µg/mL; in the experiment with Enterococcus faecalis [6] it was 2 µg/mL. The MIC in the experiment on Enterococcus [7], with Enterococcus [8] and with Enterococcus faecalis [9] was at least 32 µg/mL each time.
For the molecule `CCCCCCCCCC(=O)N[C@@H](Cc1c[nH]c2ccccc12)C(=O)N[C@@H](CC(N)=O)C(=O)N[C@@H](CC(=O)O)C(=O)N[C@@H]1C(=O)NCC(=O)NCC(=O)N[C@@H](CC(=O)O)C(=O)N[C@H](C)C(=O)N[C@@H](CC(=O)O)C(=O)NCC(=O)N[C@H](CO)C(=O)N[C@@H]([C@@H](C)CC(=O)O)C(=O)N[C@@H](CC(=O)c2ccccc2N)C(=O)O[C@@H]1C`, the minimal inhibitory concentration (MIC) in the experiment with Staphylococcus aureus [1], with Staphylococcus aureus [2], in the experiment on Staphylococcus aureus [3], with Staphylococcus aureus [4], in the experiment on Staphylococcus aureus [5] and in the experiment with Enterococcus faecalis [6] was at least 32 µg/mL in each case. The MIC in the experiment on Enterococcus [7], in the experiment with Enterococcus [8] and in the experiment with Enterococcus faecalis [9] was at least 32 µg/mL in each case.
Turning to `CCCCCCCCCC(=O)N[C@@H](C)C(=O)N[C@@H](CC(N)=O)C(=O)N[C@@H](CC(=O)O)C(=O)N[C@@H]1C(=O)NCC(=O)N[C@@H](CCCN)C(=O)N[C@@H](CC(=O)O)C(=O)N[C@H](C)C(=O)N[C@@H](CC(=O)O)C(=O)NCC(=O)N[C@H](CO)C(=O)N[C@@H]([C@@H](C)CC(=O)O)C(=O)N[C@@H](CC(=O)c2ccccc2N)C(=O)O[C@@H]1C`, the MIC in the experiment on Staphylococcus aureus [1] was at least 32 µg/mL; with Staphylococcus aureus [2] it was at least 32 µg/mL; in the experiment on Staphylococcus aureus [3], at least 32 µg/mL; with Staphylococcus aureus [4] it was at least 32 µg/mL; with Staphylococcus aureus [5], at least 32 µg/mL; in the experiment on Enterococcus faecalis [6], at least 64 µg/mL. Besides, the MIC in the experiment on Enterococcus [7], in the experiment with Enterococcus [8] and in the experiment on Enterococcus faecalis [9] was at least 64 µg/mL throughout.
Take `CCCCCCCCCC(=O)N[C@@H](Cc1c[nH]c2ccccc12)C(=O)N[C@@H](CC(N)=O)C(=O)N[C@@H](CC(=O)O)C(=O)N[C@@H]1C(=O)NCC(=O)N[C@@H](CCCN)C(=O)N[C@@H](CC(=O)O)C(=O)N[C@H](C)C(=O)N[C@@H](CC(N)=O)C(=O)NCC(=O)N[C@H](CO)C(=O)N[C@@H]([C@@H](C)CC(=O)O)C(=O)N[C@@H](CC(=O)c2ccccc2N)C(=O)O[C@@H]1C`: the minimum inhibitory concentration (MIC) was at least 32 µg/mL in the experiment with Staphylococcus aureus [1]; at least 32 µg/mL in the experiment with Staphylococcus aureus [2]; 32 µg/mL with Staphylococcus aureus [3]; 16 µg/mL in the experiment on Staphylococcus aureus [4]; 16 µg/mL in the experiment on Staphylococcus aureus [5]; at least 32 µg/mL in the experiment on Enterococcus faecalis [6]. The MIC in the experiment with Enterococcus [7], in the experiment on Enterococcus [8] and with Enterococcus faecalis [9] was at least 32 µg/mL in each case.
On to `CCCCCCCCCC(=O)N[C@@H](Cc1c[nH]c2ccccc12)C(=O)N[C@@H](CC(N)=O)C(=O)N[C@@H](C)C(=O)N[C@@H]1C(=O)NCC(=O)N[C@@H](CCCN)C(=O)N[C@@H](CC(=O)O)C(=O)N[C@H](C)C(=O)N[C@@H](CC(=O)O)C(=O)NCC(=O)N[C@H](CO)C(=O)N[C@@H]([C@@H](C)CC(=O)O)C(=O)N[C@@H](CC(=O)c2ccccc2N)C(=O)O[C@@H]1C`, for which the minimum inhibitory concentration (MIC) was at least 32 µg/mL in the experiment with Staphylococcus aureus [1]; at least 32 µg/mL in the experiment with Staphylococcus aureus [2]; 16 µg/mL with Staphylococcus aureus [3]; 16 µg/mL with Staphylococcus aureus [4]; 16 µg/mL in the experiment with Staphylococcus aureus [5]; at least 32 µg/mL in the experiment with Enterococcus faecalis [6]. Further, the MIC with Enterococcus [7], in the experiment on Enterococcus [8] and in the experiment with Enterococcus faecalis [9] was at least 32 µg/mL in each case.
As for `CCCCCCCCCC(=O)N[C@@H](Cc1c[nH]c2ccccc12)C(=O)N[C@@H](CC(N)=O)C(=O)N[C@@H](CC(=O)O)C(=O)N[C@@H]1C(=O)NCC(=O)N[C@@H]([C@@H](C)CC)C(=O)N[C@@H](CC(=O)O)C(=O)N[C@H](C)C(=O)N[C@@H](CC(=O)O)C(=O)NCC(=O)N[C@H](CO)C(=O)N[C@@H]([C@@H](C)CC(=O)O)C(=O)N[C@@H](CC(=O)c2ccccc2N)C(=O)O[C@@H]1C`, the MIC in the experiment on Staphylococcus aureus [1] was at least 32 µg/mL; with Staphylococcus aureus [2] it was at least 32 µg/mL; in the experiment on Staphylococcus aureus [3] it was 8 µg/mL; in the experiment with Staphylococcus aureus [4] it was 4 µg/mL; in the experiment with Staphylococcus aureus [5], 8 µg/mL; with Enterococcus faecalis [6], at least 64 µg/mL. The MIC in the experiment on Enterococcus [7] was at least 64 µg/mL; in the experiment on Enterococcus [8], 32 µg/mL; in the experiment on Enterococcus faecalis [9], at least 64 µg/mL.
As to `CCCCCCCCCC(=O)N[C@@H](Cc1c[nH]c2ccccc12)C(=O)N[C@@H](CC(N)=O)C(=O)N[C@@H](CC(=O)O)C(=O)N[C@@H]1C(=O)NCC(=O)N[C@@H](CCCNC(=N)N)C(=O)N[C@@H](CC(=O)O)C(=O)N[C@H](C)C(=O)N[C@@H](CC(=O)O)C(=O)NCC(=O)N[C@H](CO)C(=O)N[C@@H]([C@@H](C)CC(=O)O)C(=O)N[C@@H](CC(=O)c2ccccc2N)C(=O)O[C@@H]1C`, the minimum inhibitory concentration (MIC) in the experiment with Staphylococcus aureus [1] is 8 µg/mL; in the experiment with Staphylococcus aureus [2] it was 16 µg/mL; in the experiment with Staphylococcus aureus [3], 2 µg/mL; in the experiment on Staphylococcus aureus [4] it was 1 µg/mL; with Staphylococcus aureus [5], 2 µg/mL; with Enterococcus faecalis [6], 8 µg/mL. The figures for the MIC in the experiment with Enterococcus [7], in the experiment with Enterococcus [8] and in the experiment on Enterococcus faecalis [9] were 32 µg/mL, 16 µg/mL and at least 32 µg/mL, respectively.

Values taken from ChEMBL document CHEMBL4619795, “Establishing the Structure-Activity Relationship of Daptomycin” (ACS Med Chem Lett, 2020).
